From paper PMC10070963 (Frontiers in Microbiology, 2023) come the findings set out here.

The target in series [1] is T1, SdaC (Escherichia coli, UniProt P0AAD6).
T1 construct: full-length native chromosomal sdaC, no tag; whole-cell uptake in strain lacking the other carriers, compared with its sdaC deletion B2429
As to the kind of experiment: radiolabelled uptake by whole cells, sdaC+ versus sdaC deletion. In kind it is cell-based. The settings on record: M9 medium, 0.2% glucose, 37 °C; 100 μM L-serine; strain B2394 versus B2429; labelled compound (14C).

Substrate in series [2]: C[C@@H](O)[C@H](N)C(=O)O
As to the kind of experiment: radiolabelled uptake by whole cells, initial velocity, Lineweaver-Burk. In kind it is cell-based, Escherichia coli. The conditions noted are these: M9 medium, 0.2% glucose, 37 °C, strain B2394[pMW-liv] overexpressing LIV-I, labelled compound (14C).

T1 sequence (P0AAD6 whole entry): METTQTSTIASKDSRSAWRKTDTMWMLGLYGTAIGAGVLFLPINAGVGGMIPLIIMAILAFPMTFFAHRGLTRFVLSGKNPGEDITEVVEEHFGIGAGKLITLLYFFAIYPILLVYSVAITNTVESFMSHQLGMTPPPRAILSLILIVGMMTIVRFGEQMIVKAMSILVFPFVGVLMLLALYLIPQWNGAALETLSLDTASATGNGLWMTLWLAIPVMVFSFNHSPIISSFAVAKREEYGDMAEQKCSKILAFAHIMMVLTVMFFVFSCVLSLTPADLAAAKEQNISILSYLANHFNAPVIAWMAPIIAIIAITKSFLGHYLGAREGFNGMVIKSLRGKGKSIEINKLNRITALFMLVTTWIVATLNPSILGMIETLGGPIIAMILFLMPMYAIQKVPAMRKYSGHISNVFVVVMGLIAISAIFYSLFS

For the molecule `N[C@@H](CO)C(=O)O` [L-serine], in series [1], the “radiolabelled uptake by whole cells, sdaC+ versus sdaC deletion” value is “serine transport activity of the B2394 strain possessing SdaC as the sole transporter”.

B1: LIV-I branched chain amino acid transport system (Escherichia coli K-12) (protein)
chain: EDIKVAVVGAMSGPVAQYGDQEFTGAEQAVADINAKGGIKGNKLQIVKYDDACDPKQAVAVANKVVNDGIKYVIGHLCSSSTQPASDIYEDEGILMITPAATAPELTARGYQLILRTTGLDSDQGPTAAKYILEKVKPQRIAIVHDKQQYGEGLARAVQDGLKKGNANVVFFDGITAGEKDFSTLVARLKKENIDFVYYGGYHPEMGQILRQARAAGLKTQFMGPEGVANVSLSNIAGESAEGLLVTKPKNYDQVPANKPIVDAIKAKKQDPSGAFVWTTYAALQSLQAGLNQSDDPAEIAKYLKANSVDTVMGPLTWDEKGDLKGFEFGVFDWHANGTATDAK
notes: whole-cell uptake, ABC transporter
Turning to B1, the Km in series [2] was determined as 13.0 ± 0.9 µM.

Broadly, the Km is the concentration of substrate that gives half-maximal velocity.
